Entries after “also recorded” stand apart in the source; their conditions may differ. Like-named read-outs stand apart in the source and are kept apart here.
Columns and labels:
MDR1 [1] = format: cell-based, human
Protocol: The times of drug exposure are indicated.
(§1) (Commercially-available kits (for example, from GIBCO/BRL, Gaithersburg, Md.) can be advantageously modified for making cDNA using random hexamers.) PCR is then performed using the following primers: […]
Next, it was tested whether drug-induced MDR1 expression was maintained after the cytotoxic treatment. […] At different time points, MDR1 expression in the surviving cells was analyzed by dye efflux and immunofluorescence labeling with UIC2 (FIG. 3c) or by cDNA-PCR (FIG. 4e).

tumor [2] = details: cited from earlier work; for antitumor activity in vivo: literature
tumor [3] = details: nude mice; Meyer et al., 1989; cited from earlier work
MDR1 [4] = test: Inhibition of cytotoxic drug (Ara-C) induced MDR1 expression by protein kinase inhibitors; format: cell-based, human
Protocol: FIG. 5. Effect of protein kinase inhibitors on MDR1 mRNA induction by cytotoxic drugs in H9 cells. […]
as §1
(where β2 M represents β2 microglobulin). PCR was performed for β2 M experiments under a regime consisting of 1 cycle comprising denaturation at 94° C. for 3 minutes, primer annealing at 60° C. for 30 seconds, and primer extension at 72° C. for 1 minute, followed by 19 cycles comprising denaturation at 94° C. for 30 seconds, primer annealing at 60° C. for 30 seconds, and primer extension at 72° C. for 1 minute, followed by a final cycle comprising denaturation at 94° C. for 30 seconds, primer annealing at 60° C. for 30 seconds, and primer extension at 72° C. for 5 minutes. MDR1 cDNA sequences were amplified using the identical protocol as for β2 M, but extending the amplification from 19 cycles to 25 cycles. In addition, the cDNA-PCR amplification protocol contained the following modifications: (i) Taq DNA polymerase was added to the PCR mixtures after initial heating of the samples to 94° C. (ii) The yield of the β2 -microglobulin-specific band, obtained after 22-28 cycles of PCR, was used as the primary criterion for equalizing the starting amounts of the cDNA templates in different preparations, in order to account for differential RNA degradation in cells subjected to different types of treatment. […] PCR products were detected by autoradiography.
Cells were plated in 6-well Falcon tissue culture plates at 3,300 cells per well, and incubated in the appropriate concentrations of drugs. Each of the protein kinase inhibitors to be tested were added at their appropriate final concentrations 45 minutes prior to MDR1 induction by the addition of Ara-C or TPA, with the exception of herbimycin A, which was added 12 hours prior to Ara-C or TPA, and tyrphostins A25 and B46, which were each added 16 hours prior to MDR1 induction by the addition of Ara-C or TPA. Cells were incubated overnight (TPA) or for 10 hours (Ara-C) at 37° C. under an atmosphere of 5% CO2 after the addition of the MDR1 inducing agents before harvesting for cDNA-PCR analysis.
In addition to these conditions, the analysis of certain drugs imposed added requirements. For experiments using calphostin C, cells were incubated under direct white light illumination. For experiments using D,L-threo-sphingosine, the cell culture medium was pre-treated with the appropriate concentration of the drug for one hour at 37° C. with continuous gentle mixing. After this pre-treatment, cells were resuspended in media supplemented with drug and incubated for 45 minutes as described above.
cDNA-PCR analyses on each culture treated with drugs, or in control cultures incubated in the absence or presence of Ara-C or TPA alone, were performed as described in Section 6.1.3 above.
To further evaluate the capacity of protein kinase inhibitors to suppress MDR1 induction by cytotoxic drugs and PKC agonists, H-9 human T cell leukemia cells were used in cDNA-PCR assays to examine induced MDR1 mRNA expression levels in the presence of such protein kinase inhibitors.

MRP = test: Inhibition of MRP expression in H-9 cells; format: cell-based, human; parameters: Inhibition of MRP Expression: key to the marks not given beside the values
Protocol: PCR was performed using the following primers: […]
(where β2 M represents β2 microglobulin). PCR was performed for β2 M experiments under a regime consisting of 1 cycle comprising denaturation at 94° C. for 3 minutes, primer annealing at 60° C. for 30 seconds, and primer extension at 72° C. for 1 minute, followed by 19 cycles comprising denaturation at 94° C. for 30 seconds, primer annealing at 60° C. for 30 seconds, and primer extension at 72° C. for 1 minute, followed by a final cycle comprising denaturation at 94° C. for 30 seconds, primer annealing at 60° C. for 30 seconds, and primer extension at 72° C. for 5 minutes.

PKC = details: literature; cited from earlier work

Compound: O=c1[nH]cc(F)c(=O)[nH]1 [5-fluorouracil]
- MDR1 induction, mRNA and protein levels (MDR1 [1]): MDR1 induction, both at the mRNA and at the protein levels, was observed

Compound: CCN(CC)CCN1C(=O)c2c(c3c4cccc(Cl)c4n([C@@H]4O[C@H](CO)[C@@H](OC)[C@H](O)[C@H]4O)c3c3[nH]c4c(Cl)cccc4c23)C1=O [BMY 27557, 8-N-(diethylaminoethyl) rebeccamycin]
- optimal total dose, i.p., nine equal injections per day at 12 mg/kg/injection (tumor [2]; i.p., Schurig et al., 1990): 108 mg/kg
- optimal total dose, i.p., single dose (tumor [2]; i.p., Schurig et al., 1990): 64 mg/kg
- antitumor activity in vivo (tumor [2]): antitumor activity in vivo

Compound: CO[C@@H]1[C@H](N(C)C(=O)c2ccccc2)C[C@H]2O[C@]1(C)n1c3ccccc3c3c4c(c5c6ccccc6n2c5c31)C(=O)NC4 [CGP 41 251]
- anti-tumor effect at fraction of MTD (tumor [3]): 1/10
- maximum tolerated dose (MTD) (tumor [3]): 250 mg/kg

Compound: CN[C@@H]1C[C@H]2O[C@@](C)([C@@H]1OC)n1c3ccccc3c3c4c(c5c6ccccc6n2c5c31)C(=O)N[C@H]4O [UCN-01]
- antitumor activity in vivo (tumor [2]): antitumor activity in vivo

Compound: COc1c(CC(C)OC(=O)Oc2ccc(O)cc2)c2c3c(CC(C)OC(=O)c4ccccc4)c(OC)c(=O)c4c(O)cc(OC)c(c5c(OC)cc(O)c(c1=O)c52)c43 (centres unmarked) [calphostin C]
- prevention of MDR1 induction by chemotherapeutic drugs (MDR1 [4]; 1 μM with white light illumination): prevent MDR1 induction
- inhibition of Ara-C induced MDR1 expression (MDR1 [4]; H-9 cells, 0.1 μM with white light illumination): greatly reduced
- inhibition of Ara-C induced MDR1 expression (MDR1 [4]; H-9 cells, 1 μM with white light illumination): capable of inhibiting MDR1 expression

Compound: COc1ccc2c(c[n+](C)c3c4cc5c(cc4ccc23)OCO5)c1OC [chelerythrine]
- prevention of MDR1 induction by chemotherapeutic drugs (MDR1 [4]; 5 μM): prevent MDR1 induction
- inhibition of Ara-C induced MDR1 expression (MDR1 [4]; H-9 cells, 1 μM and 5 μM): Progressive dose-dependent inhibition
- Inhibition of MRP Expression (MRP; 1-5 μM): ++++
- inhibition of MRP expression (MRP; 1-5 μM): strongly inhibited; also recorded: capable of inhibiting MRP expression

Compound: N.N.[Cl][Pt][Cl] [cisplatin]
- MDR1 mRNA induction (MDR1 [1]; K562 cells): induce MDR1 mRNA expression
- MDR1 induction, mRNA and protein levels (MDR1 [1]; human leukemia and solid-tumor derived cell lines, subpopulation of treated cells): MDR1 induction, both at the mRNA and at the protein levels, was observed

Compound: O=CN/C=C/c1cc(O)ccc1O [erbstatin]
- antitumor activity in vivo (tumor [2]): antitumor activity in vivo
- inhibition of protein kinase C (PKC): protein kinase C inhibitors

Compound: COc1cc([C@@H]2c3cc4c(cc3[C@@H](O[C@@H]3O[C@@H]5CO[C@@H](C)O[C@H]5[C@H](O)[C@H]3O)[C@H]3COC(=O)[C@H]23)OCO4)cc(OC)c1O [etoposide]
- MDR1 induction, mRNA and protein levels (MDR1 [1]): MDR1 induction, both at the mRNA and at the protein levels, was observed

Compound: O=c1c(-c2ccc(O)cc2)coc2cc(O)cc(O)c12 [genistein]
- inhibition of Ara-C induced MDR1 expression (MDR1 [4]; 150 μM): only weakly inhibited Ara-C induced MDR1 expression
- inhibition of Ara-C induced MDR1 expression (MDR1 [4]; H9 cells, 25 μM Ara-C 10 h, 150 μM): +

Compound: COC1C=CC=C(C)C(=O)NC2=CC(=O)C=C(C2=O)C(OC)C(C)CC(OC)C(OC)C(C)C=C(C)C1OC(N)=O (centres unmarked) [herbimycin A]
- inhibition of Ara-C induced MDR1 expression (MDR1 [4]; 0.35-3 μM): little or no capacity to inhibit Ara-C induced MDR1 expression; also recorded: ineffective at inhibiting MDR1 induction by Ara-C
- inhibition of Ara-C induced MDR1 expression (MDR1 [4]; H9 cells, 25 μM Ara-C 10 h, 0.3-3 μM (12 h)): -

Compound: CN(Cc1cnc2nc(N)nc(N)c2n1)c1ccc(C(=O)N[C@@H](CCC(=O)O)C(=O)O)cc1 [methotrexate]
- MDR1 induction, mRNA and protein levels (MDR1 [1]): MDR1 induction, both at the mRNA and at the protein levels, was observed
- MDR1 mRNA expression (MDR1 [1]): MDR1 mRNA expression was induced
- maintenance of MDR1 expression after removal of the drug (MDR1 [1]): least several weeks

Compound: N#CC(C#N)=Cc1cc(O)c(O)c(O)c1 [tyrphostin A25]
- inhibition of Ara-C induced MDR1 expression (MDR1 [4]; H-9 cells, 50-100 μM): strongly inhibit Ara-C induced MDR1 expression; also recorded: inhibit Ara-C induced MDR1 expression

Compound: N#CC(=Cc1ccc(O)c(O)c1)C(=O)NCCCc1ccccc1 [tyrphostin B46]
- inhibition of Ara-C induced MDR1 expression (MDR1 [4]; H-9 cells, 50-100 μM): strongly inhibit Ara-C induced MDR1 expression; also recorded: inhibit Ara-C induced MDR1 expression

Compound: neomycin sulfate
- inhibition of Ara-C induced MDR1 expression (MDR1 [4]; H-9 cells, 10 mM): inhibit Ara-C induced MDR1 expression
- Inhibition of MRP Expression (MRP; 10 mM): ++++
- inhibition of MRP expression (MRP; 10 mM): strongly inhibited; also recorded: capable of inhibiting MRP expression
- inhibition of protein kinase C (PKC): protein kinase C inhibitors
